Data: patent US9028856B2, “Synergistic pesticide compositions” (priority 2008, dated 2015)

Experiments:
[1] = tested on: Musca domestica, susceptible strain WHO(N); assay: Efficacy of formulations on surfaces (glazed/unglazed tiles), house flies, continuous exposure; type: in vivo; settings: strain WHO(N) susceptible, acetone solutions on glazed tiles, mean of three replicates
Description: A flat fan nozzle (type SS 8003-E) in a spray cabin was moved automatically over a defined area where the solutions were sprayed very evenly onto the surfaces. The formulation was mixed with water to give a concentration which corresponded to the desired quantity of a.i./m^2. A defined quantity of this solution was sprayed onto the area (nominal 350 liter/ha=0.77 ml per surface).
All surfaces were provided with talcum-coated glass rings (diameter 9.5 cm, height 5.5 cm) one day later.
The test insects were anesthetized with CO2, 20 individuals were placed onto the treated surfaces and the glass ring was covered with wire gauze ring.
Knock down was determined after 15 and 30′, 1, 2, 4 and 6 hours, mortality after 1 day exposure.
Each test consisted of at least one replicate and any additional replicates are noted.
Test Insects: House flies (Musca domestica) of both sexes, susceptible strain WHO(N) and resistant strain Reichswald
Evaluation: Mortality was evaluated cumulatively at different times. […]
Test Insects: Culex quinquefasciatus (adults) (3 minutes exposure time according to USDA Petri Dish Method), Musca domestica (adults), susceptible and resistant strain, Blattella germanica (males), Cimex lectularius (adults) (all: continuous exposure time)
Application: The EC formulation (diluted with water 1:9) were applied as 0.85 ml solutions onto glazed tiles (15 cm×15 cm)
Evaluation: Knock down after 15, and 30 minutes, 1, 2, 3, 4, 6 and 24 hours (mortality)
Test Insects: Culex quinquefasciatus (adults, susceptible) (3 minutes exposure time according to USDA Petri Dish Method), Musca domestica (adults, susceptible and resistant), Blattella germanica (males, susceptible) (both: continuous exposure time)
Formulations: Insecticide with or without 10% Compound A (as EC), to be diluted with water (1 part formulation+9 parts water)
Evaluation: Knock down after 3, 9 (mosquitoes only), 15, and 30 minutes, 1, 2, 3, 4 and 24 hours (mortality) […]

Aedes aegypti mosquito = assay: USDA Petri Dish Method, 3 min exposure to treated glazed tile; type: in vivo; settings: Table 37, resmethrin/adjuvant in acetone, glazed tile, 3 min exposure
Method in brief: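 Resmethrin or clothianidin in acetone, with or without adjuvant, applied to glazed tile and dried overnight; twenty 4-6 day old female mosquitoes exposed 3 minutes, then moved to clean index card. Knockdown scored at intervals over hours; mortality at 24 hours with sucrose provided; at least three replicates.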

[2] = tested on: Culex quinquefasciatus mosquito; assay: USDA Petri Dish Method, 3 min exposure to treated glazed tile (twenty 4-6 day old females); type: in vivo; settings: in vivo
Description: MATERIALS AND METHODS: Solutions of resmethrin at 1 and 0.5% AI were prepared with and without adjuvant in acetone. […] USDA Petri Dish Method was used as initial screening protocol. Twenty, 4-6 day old female Culex quinquefasciatus mosquitoes were exposed to each treatment for 3 minutes and then moved to a clean untreated white paper index card. Treatments were replicated a minimum of three times. Mosquito knockdown was evaluated at 3 minute intervals for the first 15 minutes and then at 5 minute intervals for the remainder of an hour. A small cotton ball soaked in sucrose solution was added on the screen top of the petri-dish as a drinking source after the 2 hour evaluation. Mortality was evaluated at 24 hours after exposure.
(§1) Treatments were allowed to dry overnight. USDA Petri Dish Method was used as initial screening protocol. Twenty, 4-6 day old female Culex mosquitoes were exposed to each treatment for 3 minutes and then moved to a clean untreated white paper index card. Treatments were replicated a minimum of three times. Mosquito knockdown was evaluated at various intervals through 3 hours after exposure. A small cotton ball soaked in sucrose solution was added on the screen top of the petri-dish as a drinking source. Mortality was evaluated at 24 hours after exposure.
as §1, with “female Culex quinquefasciatus mosquitoes were” for “female Culex mosquitoes were”, “intervals through 2 hours after” for “intervals through 3 hours after”, “solution was then added on” for “solution was added on”
as §1, with “Culex quinquefasciatus” for “Culex”, “hourly intervals.” for “intervals through 3 hours after exposure.”, “source after 2 hours.” for “source.”

[3] = tested on: Musca domestica, susceptible strain WHO(N); assay: Contact efficacy against houseflies on filter papers in glass dishes; type: in vivo; settings: % a.i. conc. in acetone on filter papers, Table 97
Description: Male Musca domestica, susceptible strain WHO(N), were used.
A solution of the active ingredient in acetone was prepared. A concentration row was made. After evaporation of the acetone (30′), the dishes were closed by a glass lid and transferred into the test room. One day later twenty flies, anaesthetized with CO2, are counted into each dish. At regular intervals, knock down was recorded (cumulatively). Each test consisted of one replicate. […]

[4] = type: physicochemical; settings: classified from Log P
Excerpt: As used herein, a “partition coefficient” is defined as the ratio of concentrations of an un-ionized compound between solutions of water and octanol. To measure the partition coefficient of ionizable solutes, the pH of the aqueous phase is adjusted such that the predominant form of the compound is un-ionized. The logarithm of the ratio of the concentrations of the un-ionized solute in the solvents is referred to herein as log P or log K ow.
As noted herein, the octanol-water partition coefficient may be used to identify the cuticular penetration of a particular active ingredient. One factor in the relative speed through which any insecticide acts is the insecticide's ability to cross the insect cuticle. A determining factor for cuticle penetration is Log K ow, also known as Log P. Log K ow (Log P) is the octanol-water partition coefficient for a neutral molecule. Log P is used hereinfurther, but, as noted above, the term is synonymous with Log K ow. As previously noted, the cuticular penetration of any particular active ingredient as against a plant cuticle is not indicative of that same active ingredient's ability to penetrate an insect cuticle.
The cuticular penetration of a compound is classified as “INTERMEDIATE” when the Log P value is between about 2.0 and about 4.0.

SMILES	% knock down after ([3]; 15′) [%]	% knock down after ([3]; 30′) [%]	% knock down after ([3]; 1 h) [%]	% knock down after ([3]; 1.5 h) [%]	% knock down after ([3]; 2 h) [%]	% knock down after ([3]; 3 h) [%]	% knock down after ([3]; 4 h) [%]	% knock down after ([3]; 6 h) [%]	% knock down after ([3]; 1 d) [%]	also measured
CC1(C)[C@H](C(=O)O[C@H](C#N)c2cccc(Oc3ccccc3)c2)[C@@H]1C=C(Br)Br [0.001% DTM]	–	–	–	–	–	–	–	–	–	% Mortality after ([1]; 15′): 2%; % Mortality after ([1]; 30′): 18%; % Mortality after ([1]; 1 h): 58%; % Mortality after ([1]; 2 h): 80%; % Mortality after ([1]; 3 h): 88%; % Mortality after ([1]; 24 h): 92%
CC(C)=CC1C(C(=O)OCc2coc(Cc3ccccc3)c2)C1(C)C (stereo not drawn) [Resmethrin (0.5%)]	–	–	–	–	–	–	–	–	–	Average % Knockdown & Mortality after 3 min (Aedes aegypti mosquito): 0%; Average % Knockdown & Mortality after 15 min (Aedes aegypti mosquito): 0%; Average % Knockdown & Mortality after 30 min (Aedes aegypti mosquito): 0%; Average % Knockdown & Mortality after 60 min (Aedes aegypti mosquito): 0%; Average % Knockdown & Mortality after 24 hr (Aedes aegypti mosquito): 8%; Average % Knockdown & Mortality after 3 min [2]: 0%; Average % Knockdown & Mortality after 15 min [2]: 0%; Average % Knockdown & Mortality after 30 min [2]: 0%; Average % Knockdown & Mortality after 60 min [2]: 0%; Average % Knockdown & Mortality after 2 hr [2]: 0%; Average % Knockdown & Mortality after 24 hr [2]: 0%
CC1(C)C(C=C(Br)Br)C1C(=O)OC(C#N)c1cccc(Oc2ccccc2)c1 (stereo not drawn) [0.0016% DTM]	0	5	70	90	100	100	100	100	95	–
CC1(C)[C@H](C(=O)O[C@H](C#N)c2cccc(Oc3ccccc3)c2)[C@@H]1C=C(Br)Br [0.00032% DTM]	0	0	5	30	50	65	65	60	95	–
CC1(C)[C@H](C(=O)O[C@H](C#N)c2cccc(Oc3ccccc3)c2)[C@@H]1C=C(Br)Br [0.0000128% DTM]	0	0	0	0	0	0	0	15	70	–
CCOP(=S)(OCC)Oc1cc(C)nc(C(C)C)n1 [diazinon]	–	–	–	–	–	–	–	–	–	Likelihood of Direct Insect Cuticular Penetration [4]: Intermediate (classified as “INTERMEDIATE” when the Log P value is between about 2.0 and about 4.0)
CC1(C)[C@H](C(=O)O[C@H](C#N)c2cccc(Oc3ccccc3)c2)[C@@H]1C=C(Br)Br [0.000064% DTM]	0	0	0	0	0	0	0	15	80	–
CC(C)=CC1C(C(=O)OCc2coc(Cc3ccccc3)c2)C1(C)C (stereo not drawn) [Resmethrin (1%)]	–	–	–	–	–	–	–	–	–	Average % Knockdown & Mortality after 3 min (Aedes aegypti mosquito): 66%; Average % Knockdown & Mortality after 15 min (Aedes aegypti mosquito): 100%; Average % Knockdown & Mortality after 30 min (Aedes aegypti mosquito): 100%; Average % Knockdown & Mortality after 60 min (Aedes aegypti mosquito): 100%; Average % Knockdown & Mortality after 24 hr (Aedes aegypti mosquito): 100%; Average % Knockdown & Mortality after 3 min [2]: 0%; Average % Knockdown & Mortality after 15 min [2]: 2%; Average % Knockdown & Mortality after 30 min [2]: 13%; Average % Knockdown & Mortality after 60 min [2]: 11%; Average % Knockdown & Mortality after 2 hr [2]: 2%; Average % Knockdown & Mortality after 24 hr [2]: 4%
CCOP(=S)(OCC)Oc1nc(Cl)c(Cl)cc1Cl [chlorpyrifos]	–	–	–	–	–	–	–	–	–	Likelihood of Direct Insect Cuticular Penetration [4]: Fast (classified as “FAST” when it has a Log P value of about >4.0)
